One test has as its target T1, human 11β-HSD1 (Homo sapiens, UniProt P28845).
T1 construct: expressed in transfected cells
Put plainly: Enzyme inhibitory activity assay, lysate of HEK293 cells stably expressing human 11β-HSD1, cortisol by competitive ELISA. The conditions noted are these: Table 1; cell lysate, 100 nmol/L cortisone, NADPH, 37° C. 1 hour; read-out: in vitro assay (IC50 uM) h HSD1. The format is biochemical. The protocol:
(§1) 1. Human 11β-HSD1-, Human 11β-HSD2- and Mouse 11β-HSD1-Gene Clonings and Establishment of Stably Expressing Cells
(§2) Human 11β-HSD1- and human 11β-HSD2-expressing vectors were transfected into human kidney-derived cell line, HEK293 cells, using a transfection reagent, jet PEI (Funakoshi). Mouse 11β-HSD1 was transfected to Chinese hamster ovary-derived cell line, CHO-K1 cells. Selection was conducted with 200-400 μg/mL of zeocine (Invitrogen) to provide stably expressing-cell clones. The stably expressing cells were suspended in buffer solution A (20 mmol/L Tris-HCl, pH 7.4, 250 mmol/L sucrose, 1 mmol/L EGTA, 1 mmol/L EDTA, 1 mmol/L MgCl2), sonicated, and then stored at −80° C.
(§3) 2. Assay of Enzyme Inhibitory Activity
(§4) An enzymatic reaction was conducted using a polystyrene 96-well plate. Each well was added with 1 μL of a test agent dissolved in DMSO and then diluted (0.003 to 3 mmol/L), and further added with 10 μL of cell lysate diluted to a concentration of 0.1 mg/mL to 0.4 mg/mL. Next, 90 μL of buffer solution A containing substrate (100 nmol/L cortisone or cortisol) and coenzyme (400 μmol/L NADPH or NAD+) was added and the mixture was incubated at 37° C. for 1 hour. The enzymatic reaction was stopped by treating at 95° C. for 3 minutes. Cortisol that was present in the reaction solution was determined by a competitive ELISA shown below.
(§5) Anti-rabbit IgG antibody (Chemi-con) diluted to 2 μg/mL with carbonate buffer solution (pH 9.6) was added in 100 μL each to a 96-well immuno plate (Nunc) and immobilized by an incubation at 4° C. overnight. […] After washed three times with buffer solution B containing 0.05% Tween 20, the plates were allowed to develop color by adding 100 μL, of color reagent, TMB (Moss). The color reaction was stopped by 25 μL of 1 mol/L sulfuric acid and the absorbance was determined at 450 nm with a microplate reader (Molecular Device, VersaMax).
For orientation: In an ELISA, binding on a coated surface is turned into a signal by an enzyme label.

The target in a further test is T2, mouse 11β-HSD1 (Mus musculus, UniProt P50172).
T2 construct: expressed in transfected cells
In words: Enzyme inhibitory activity assay, lysate of CHO-K1 cells stably expressing mouse 11β-HSD1, cortisol by competitive ELISA. The format is biochemical. The conditions noted are these: Table 2; cell lysate, 100 nmol/L cortisone, NADPH, 37° C. 1 hour; read-out: in vitro assay (IC50 uM) m HSD1. As for the experimental part:
as §1, §2, §3, §4, §5

T1 sequence (P28845 whole entry): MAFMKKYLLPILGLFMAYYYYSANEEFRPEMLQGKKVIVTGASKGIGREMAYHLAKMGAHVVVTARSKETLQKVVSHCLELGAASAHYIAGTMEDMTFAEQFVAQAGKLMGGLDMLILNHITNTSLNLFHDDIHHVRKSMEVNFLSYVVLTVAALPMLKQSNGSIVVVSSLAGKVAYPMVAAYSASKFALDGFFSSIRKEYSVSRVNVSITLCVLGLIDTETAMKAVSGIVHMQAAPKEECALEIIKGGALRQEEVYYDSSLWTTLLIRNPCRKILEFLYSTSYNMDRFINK
T2 sequence (P50172 whole entry): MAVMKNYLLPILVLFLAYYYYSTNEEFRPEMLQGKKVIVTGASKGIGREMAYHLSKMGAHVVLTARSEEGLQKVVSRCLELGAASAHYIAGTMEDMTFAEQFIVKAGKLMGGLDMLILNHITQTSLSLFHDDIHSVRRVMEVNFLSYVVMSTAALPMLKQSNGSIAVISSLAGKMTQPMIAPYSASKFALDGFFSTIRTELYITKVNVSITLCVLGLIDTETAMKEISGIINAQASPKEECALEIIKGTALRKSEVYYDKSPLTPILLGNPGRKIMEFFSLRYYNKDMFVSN

With `CC1(C)C(=O)N(C2C3CC4CC(C3)CC2C4)C1c1cccc(Cl)c1Cl` (stereo not drawn) [Example 2, 1-(adamantan-2-yl)-3,3-dimethyl-4-(2,3-dichlorophenyl)azetidin-2-one], the results for the IC50 at human 11β-HSD1 and on mouse 11β-HSD1 were 0.0054 µM and 0.054 µM, respectively.
On the same counts, the results for `CC1(C)C(=O)N([C@H]2C3CC4CC2C[C@](Cl)(C4)C3)C1c1cccc(Cl)c1Cl` (stereo partly drawn) [Example 3, trans-1-(5-chloroadamantan-2-yl)-3,3-dimethyl-4-(2,3-dichlorophenyl)azetidin-2-one] are 0.057 µM and 0.31 µM.
Take `CC1(C)C(=O)N([C@H]2C3CC4CC2C[C@@](Cl)(C4)C3)C1c1cccc(Cl)c1Cl` (stereo partly drawn) [Example 4, cis-1-(5-chloroadamantan-2-yl)-3,3-dimethyl-4-(2,3-dichlorophenyl)azetidin-2-one]: the IC50 came to 0.046 µM on human 11β-HSD1 and 0.34 µM on mouse 11β-HSD1.
For `CC1(C)C(=O)N([C@H]2C3CC4CC2C[C@](Cl)(C4)C3)C1c1cccc2ccccc12` (stereo partly drawn) [Example 5, trans-1-(5-chloroadamantan-2-yl)-3,3-dimethyl-4-(naphthalen-1-yl)azetidin-2-one], the figures for the half-maximal inhibitory concentration (IC50) at human 11β-HSD1 and at mouse 11β-HSD1 were 0.88 µM and 0.66 µM, respectively.
On the same counts, the results for `CC1(C)C(=O)N([C@H]2C3CC4CC2C[C@@](Cl)(C4)C3)C1c1cccc2ccccc12` (stereo partly drawn) [Example 6, cis-1-(5-chloroadamantan-2-yl)-3,3-dimethyl-4-(naphthalen-1-yl)azetidin-2-one] are 0.56 µM and 0.87 µM.
On the same counts, the results for `COC(=O)[C@]12CC3CC(C1)[C@@H](N1C(=O)C(C)(C)C1c1cccc(Cl)c1Cl)C(C3)C2` (stereo partly drawn) [Example 7, methyl trans-4-[2-(2,3-dichlorophenyl)-3,3-dimethyl-4-oxoazetidin-1-yl]-1-adamantane carboxylate] are 0.013 µM and 0.25 µM.
As for `CC1(C)C(=O)N([C@H]2C3CC4CC2C[C@](C(=O)O)(C4)C3)C1c1cccc(Cl)c1Cl` (stereo partly drawn) [Example 8, trans-4-[2-(2,3-Dichlorophenyl)-3,3-dimethyl-4-oxoazetidin-1-yl]-1-adamantane carboxylic acid], the IC50 at human 11β-HSD1 was 0.066 µM.
In the case of `CC1(C)C(=O)N([C@H]2C3CC4CC2C[C@](C(N)=O)(C4)C3)C1c1cccc(Cl)c1Cl` (stereo partly drawn) [Example 9, trans-4-[2-(2,3-dichlorophenyl)-3,3-dimethyl-4-oxoazetidin-1-yl]-1-adamantane carboxyamide], the values for the 50% inhibitory concentration (IC50) on human 11β-HSD1 and on mouse 11β-HSD1 were 0.005 µM and 0.035 µM, respectively.
For `COC(=O)[C@]12CC3CC(C1)[C@@H](N1C(=O)C(C)(C)C1c1cccc4ccccc14)C(C3)C2` (stereo partly drawn) [Example 10, methyl trans-4-[2-(naphthalen-1-yl)-3,3-dimethyl-4-oxoazetidin-1-yl]-1-adamantane carboxylate], the IC50 at human 11β-HSD1 came out at 0.019 µM; at mouse 11β-HSD1, 0.034 µM.
Regarding `CC1(C)C(=O)N([C@H]2C3CC4CC2C[C@](C(=O)O)(C4)C3)C1c1cccc2ccccc12` (stereo partly drawn) [Example 11, trans-4-[2-(naphthalen-1-yl)-3,3-dimethyl-4-oxoazetidin-1-yl]-1-adamantane carboxylic acid], the values for the IC50 on human 11β-HSD1 and on mouse 11β-HSD1 were 0.26 µM and 0.42 µM, respectively.
For `CC1(C)C(=O)N([C@H]2C3CC4CC2C[C@](C(N)=O)(C4)C3)C1c1cccc2ccccc12` (stereo partly drawn) [Example 12, trans-4-[2-(naphthalen-1-yl)-3,3-dimethyl-4-oxoazetidin-1-yl]-1-adamantane carboxyamide], the IC50 turned out to be 0.022 µM at human 11β-HSD1 and 0.023 µM at mouse 11β-HSD1.
The corresponding values for `COC(=O)[C@]12CC3CC(C1)[C@@H](N1C(=O)C(C)(C)C1c1cccc4c1OCO4)C(C3)C2` (stereo partly drawn) [Example 13, methyl trans-4-[2-(benzo[d][1,3]dioxol-4-yl)-3,3-dimethyl-4-oxoazetidin-1-yl]-1-adamantane carboxylate] are 0.051 µM and 0.24 µM.
On to `CC1(C)C(=O)N([C@H]2C3CC4CC2C[C@](C(=O)O)(C4)C3)C1c1cccc2c1OCO2` (stereo partly drawn) [Example 14, trans-4-[2-(benzo[d][1,3]dioxol-4-yl)-3,3-dimethyl-4-oxoazetidin-1-yl]-1-adamantane carboxylic acid], for which the IC50 at human 11β-HSD1 was 0.013 µM; on mouse 11β-HSD1, 0.0095 µM.
Regarding `CC1(C)C(=O)N([C@H]2C3CC4CC2C[C@](C(N)=O)(C4)C3)C1c1cccc2c1OCO2` (stereo partly drawn) [Example 15, trans-4-[2-(benzo[d][1,3]dioxol-4-yl)-3,3-dimethyl-4-oxoazetidin-1-yl]-1-adamantane carboxyamide], the IC50 at human 11β-HSD1 and at mouse 11β-HSD1 was 0.031 µM each time.
As to `CC1(C)C(=O)N([C@H]2C3CC4CC2C[C@](C(N)=O)(C4)C3)C1c1cccc2cnccc12` (stereo partly drawn) [Example 16, trans-4-[2-(isoquinolin-5-yl)-3,3-dimethyl-4-oxoazetidin-1-yl]-1-adamantane carboxyamide], the IC50 at human 11β-HSD1 stood at 0.41 µM.
`COC(=O)[C@]12CC3CC(C1)[C@@H](N1C(=O)C(C)(C)C1c1cccc4cccnc14)C(C3)C2` (stereo partly drawn) [Example 18, methyl trans-4-[2-(quinolin-8-yl)-3,3-dimethyl-4-oxoazetidin-1-yl]-1-adamantane carboxylate]: the values for the IC50 on human 11β-HSD1 and on mouse 11β-HSD1 were 0.029 µM and 0.074 µM, respectively.
For `CC1(C)C(=O)N([C@H]2C3CC4CC2C[C@](C(N)=O)(C4)C3)C1c1cccc2cccnc12` (stereo partly drawn) [Example 20, trans-4-[2-(quinolin-8-yl)-3,3-dimethyl-4-oxoazetidin-1-yl]-1-adamantane carboxyamide], the IC50 on human 11β-HSD1 turned out to be 0.057 µM; on mouse 11β-HSD1, 0.053 µM.
In the case of `CC1(C)C(=O)N(C2C3CC4CC(C3)CC2C4)C1c1cccc(Cl)c1F` (stereo not drawn) [Example 25, 1-(adamantan-2-yl)-3,3-dimethyl-4-(3-chloro-2-fluorophenyl)azetidin-2-one], the concentration for half-maximal inhibition (IC50) at human 11β-HSD1 was determined as 0.02 µM; on mouse 11β-HSD1, 0.18 µM.
The corresponding values for `CC1(C)C(=O)N(C2C3CC4CC(C3)CC2C4)C1c1cccc(C(F)(F)F)c1F` (stereo not drawn) [Example 28, 1-(adamantan-2-yl)-3,3-dimethyl-4-(2-fluoro-3-trifluoromethylphenyl)azetidin-2-one] are 0.029 µM and 0.16 µM.
On to `CC1(C)C(=O)N(C2C3CC4CC(C3)CC2C4)C1c1cccc(C(F)(F)F)c1Cl` (stereo not drawn) [Example 30, 1-(adamantan-2-yl)-3,3-dimethyl-4-(2-chloro-3-trifluoromethylphenyl)azetidin-2-one], for which the figures for the IC50 on human 11β-HSD1 and on mouse 11β-HSD1 were 0.016 µM and 0.13 µM, respectively.
On the same counts, the results for `CC1(C)C(=O)N(C2C3CC4CC(C3)CC2C4)C1c1cc(Cl)cc(Cl)c1` (stereo not drawn) [Example 31, 1-(adamantan-2-yl)-3,3-dimethyl-4-(3,5-dichlorophenyl)azetidin-2-one] are 0.015 µM and 0.076 µM.
Take `CC1(C)C(=O)N(C2C3CC4CC(C3)CC2C4)C1c1ccc(F)c(C(F)(F)F)c1` (stereo not drawn) [Example 32, 1-(adamantan-2-yl)-3,3-dimethyl-4-(4-fluoro-3-trifluoromethylphenyl)azetidin-2-one]: the IC50 on human 11β-HSD1 is 0.024 µM.
Turning to `COc1cccc(C2N(C3C4CC5CC(C4)CC3C5)C(=O)C2(C)C)c1` (stereo not drawn) [Example 34, 1-(adamantan-2-yl)-3,3-dimethyl-4-(3-methoxyphenyl)azetidin-2-one], the 50% inhibitory concentration (IC50) is 0.012 µM on human 11β-HSD1 and 0.031 µM at mouse 11β-HSD1.
Turning to `CC1(C)C(=O)N(C2C3CC4CC(C3)CC2C4)C1c1cc(F)c(F)c(F)c1` (stereo not drawn) [Example 36, 1-(adamantan-2-yl)-3,3-dimethyl-4-(3,4,5-trifluorophenyl)azetidin-2-one], the half-maximal inhibitory concentration (IC50) at human 11β-HSD1 stood at 0.091 µM.
The same measure, in the same setting: to `CC1(C)C(=O)N(C2C3CC4CC(C3)CC2C4)C1c1ccc(Br)cc1` (stereo not drawn) [Example 43, 1-(adamantan-2-yl)-3,3-dimethyl-4-(4-bromophenyl)azetidin-2-one] belongs 0.025 µM; to `COC(=O)[C@]12CC3CC(C1)[C@@H](N1C(=O)C(C)(C)C1c1ccnc4ccccc14)C(C3)C2` (stereo partly drawn) [Example 49, methyl trans-4-[2-(quinolin-4-yl)-3,3-dimethyl-4-oxoazetidin-1-yl]-1-adamantane carboxylate], 0.1 µM; to `CC1(C)C(=O)N([C@H]2C3CC4CC2C[C@](C(N)=O)(C4)C3)C1c1ccnc2ccccc12` (stereo partly drawn) [Example 51, trans-4-[2-(quinolin-4-yl)-3,3-dimethyl-4-oxoazetidin-1-yl]-1-adamantane carboxyamide], 0.08 µM.
The same measure, in the same setting: to `CC1(C)C(=O)N(C2C3CC4CC(C3)CC2C4)C1c1cc(C(F)(F)F)cc(C(F)(F)F)c1` (stereo not drawn) [Example 54, 1-(adamantan-2-yl)-3,3-dimethyl-4-[3,5-bis(trifluoromethyl)phenyl]azetidin-2-one] belongs 0.91 µM.

A word on the IC50: it is the midpoint of a concentration-inhibition curve.

These data come from patent US8236789B2, “1-adamantyl azetidin-2-one derivatives and drugs containing same” (Kowa Company, Ltd., priority 2008, dated 2012).
